Reference: patent US9353146B2, “Acylation derivatives of paridis saponins I, preparation method therefor and application thereof” (HANGZHOU BENSHENG PHARMACEUTICAL CO., LTD., priority 2012, dated 2016)
In brackets after ≈: the same amount, converted by molar mass.

What was measured:
[1] = tested on: K562/adr (drug-resistant, chronic myeloid leukemia, CML); test: Anti-leukemia cell growth inhibition, MTT method, 72 h; format: cell-based, human; conditions: Homo sapiens, K562/Adr
Text: (§1) Leukemia cell lines: leukemia cell lines: K562/adr (drug-resistant, chronic myeloid leukemia, CML), NB4 (acute promyelocytic leukemia, AML), and Kasumi-1 (acute myeloid leukemia M2 type, AML-M2), all of which were donated by Cancer Research Institute of Zhejiang University, China.
(§2) 6000 well-growing leukemia cells were obtained and inoculated into wells of a 96-well cell culture plate. The culture medium used was the 1640 cell culture medium containing 10% fetal bovine serum. After adding the Polyphyllin I derivatives with 5′-acylated arabinofuranosyl of different concentrations and mixing uniformly, the plate was placed in a carbon dioxide cell incubator (5% CO2) at 37° C. and incubated for 72 hours. Then the viable cell concentration was determined by the MTT method. In this experiment, the cell viability in control group (not treated with any compound) is set as 100%. On such basis, the cell viability (%) after treatment of the compound and the 50% inhibiting concentration for the leukemia cell growth at 72 hours (IC50 value and IC90 value of 72 hours) were calculated.

[2] = tested on: NB4 (acute promyelocytic leukemia, AML); test: as above; format: cell-based, human; conditions: Homo sapiens
Text: as §1, §2

[3] = tested on: RKO (human colon adenocarcinoma cell); test: Anti-human solid tumor cell growth inhibition, MTT method, 72 h; format: cell-based; conditions: Homo sapiens
Text: (§3) Human solid tumor cell lines: A549 (human lung cancer) and SK-OV-3 (ovarian cancer cell), all of which are purchased from China Center For Type Culture Collection; RKO (human colon adenocarcinoma cell) and MG-63 (osteosarcoma), all of which are purchased from Fuxiang Bio-tech Co. Ltd., Shanghai, China; Hela (human cervical cancer cell), donated by Cancer Research Institute of Zhejiang University, China.
(§4) 4000 well-growing human solid tumor cells were obtained and inoculated into wells of a 96-well cell culture plate. The culture medium used was DMEM High Glucose cell culture medium containing 10% fetal bovine serum. The plate is placed in a carbon dioxide cell incubator (5% CO2) at 37° C. and incubated for 24 hours. After adding the Polyphyllin I derivatives with 5′-acylated arabinofuranosyl group of different concentrations and mixing uniformly, the plate was continued to be placed in a carbon dioxide cell incubator (5% CO2) at 37° C. and incubated for 72 hours. Then the viable cell concentration was determined by the MTT method and the cell viability (%) after drug treatment was calculated. In this experiment, the cell viability of control group (not treated with any compound) is set as 100%.

[4] = tested on: A549 (human lung cancer); test: as above; format: cell-based; conditions: Homo sapiens, A549
Text: as §3, §4

[5] = tested on: Hela (human cervical cancer cell); test: as above; format: cell-based; conditions: Homo sapiens, HeLa
Text: as §3, §4

SMILES	IC50 [1]	IC50 [2]	IC90 [2]	IC90 [3]	IC90 [1]	IC50 [4]	IC90 [4]	IC50 [5]	IC90 [5]
COc1ccc(C(=O)OC[C@@H]2OC(O[C@H]3[C@H](O)[C@@H](OC4O[C@@H](C)[C@H](O)[C@@H](O)[C@H]4O)[C@H](O[C@H]4CC[C@@]5(C)C(=CCC6C7CC8O[C@]9(CC[C@@H](C)CO9)[C@@H](C)C8[C@@]7(C)CCC65)C4)O[C@@H]3CO)[C@H](O)[C@H]2O)cc1 (some centres unmarked) [BS-PP-03]	0.69 µg/mL (≈ 0.698 µM)	1.13 µg/mL (≈ 1.14 µM)	1.96 µg/mL (≈ 1.98 µM)	4.5 µg/mL (≈ 4.55 µM)	–	–	–	–	–
C[C@@H]1CC[C@@]2(OC1)OC1CC3C4CC=C5C[C@@H](O[C@@H]6O[C@H](CO)[C@@H](OC7O[C@@H](COC(=O)c8ccncc8)[C@H](O)[C@H]7O)[C@H](O)[C@H]6OC6O[C@@H](C)[C@H](O)[C@@H](O)[C@H]6O)CC[C@]5(C)C4CC[C@]3(C)C1[C@@H]2C (some centres unmarked) [BS-PP-04]	0.38 µg/mL (≈ 0.396 µM)	0.91 µg/mL (≈ 0.948 µM)	3.85 µg/mL (≈ 4.01 µM)	–	2.33 µg/mL (≈ 2.43 µM)	1 µg/mL (≈ 1.04 µM)	14.5 µg/mL (≈ 15.1 µM)	0.48 µg/mL (≈ 0.5 µM)	3.23 µg/mL (≈ 3.36 µM)
C[C@@H]1CC[C@@]2(OC1)OC1CC3C4CC=C5C[C@@H](O[C@@H]6O[C@H](CO)[C@@H](OC7O[C@@H](COC(=O)c8ccc(C(F)(F)F)cc8)[C@H](O)[C@H]7O)[C@H](O)[C@H]6OC6O[C@@H](C)[C@H](O)[C@@H](O)[C@H]6O)CC[C@]5(C)C4CC[C@]3(C)C1[C@@H]2C (some centres unmarked) [BS-PP-05]	–	–	–	6.82 µg/mL (≈ 6.64 µM)	–	1.8 µg/mL (≈ 1.75 µM)	12 µg/mL (≈ 11.7 µM)	–	–
C[C@@H]1CC[C@@]2(OC1)OC1CC3C4CC=C5C[C@@H](O[C@@H]6O[C@H](CO)[C@@H](OC7O[C@@H](COC(=O)c8ccc(F)cc8)[C@H](O)[C@H]7O)[C@H](O)[C@H]6OC6O[C@@H](C)[C@H](O)[C@@H](O)[C@H]6O)CC[C@]5(C)C4CC[C@]3(C)C1[C@@H]2C (some centres unmarked) [BS-PP-06]	0.73 µg/mL (≈ 0.747 µM)	0.79 µg/mL (≈ 0.808 µM)	4.09 µg/mL (≈ 4.19 µM)	5.13 µg/mL (≈ 5.25 µM)	2.66 µg/mL (≈ 2.72 µM)	–	–	–	–
C[C@@H]1CC[C@@]2(OC1)OC1CC3C4CC=C5C[C@@H](O[C@@H]6O[C@H](CO)[C@@H](OC7O[C@@H](COC(=O)c8ccc(F)cc8F)[C@H](O)[C@H]7O)[C@H](O)[C@H]6OC6O[C@@H](C)[C@H](O)[C@@H](O)[C@H]6O)CC[C@]5(C)C4CC[C@]3(C)C1[C@@H]2C (some centres unmarked) [BS-PP-08]	0.49 µg/mL (≈ 0.492 µM)	0.85 µg/mL (≈ 0.854 µM)	1.9 µg/mL (≈ 1.91 µM)	4.93 µg/mL (≈ 4.95 µM)	2.5 µg/mL (≈ 2.51 µM)	1.19 µg/mL (≈ 1.2 µM)	14.1 µg/mL (≈ 14.1 µM)	0.61 µg/mL (≈ 0.613 µM)	3.89 µg/mL (≈ 3.91 µM)
